Where a name gives a salt, the structure may show the parent alone.

Chain of human Factor XIa (P03951 whole entry, looked up): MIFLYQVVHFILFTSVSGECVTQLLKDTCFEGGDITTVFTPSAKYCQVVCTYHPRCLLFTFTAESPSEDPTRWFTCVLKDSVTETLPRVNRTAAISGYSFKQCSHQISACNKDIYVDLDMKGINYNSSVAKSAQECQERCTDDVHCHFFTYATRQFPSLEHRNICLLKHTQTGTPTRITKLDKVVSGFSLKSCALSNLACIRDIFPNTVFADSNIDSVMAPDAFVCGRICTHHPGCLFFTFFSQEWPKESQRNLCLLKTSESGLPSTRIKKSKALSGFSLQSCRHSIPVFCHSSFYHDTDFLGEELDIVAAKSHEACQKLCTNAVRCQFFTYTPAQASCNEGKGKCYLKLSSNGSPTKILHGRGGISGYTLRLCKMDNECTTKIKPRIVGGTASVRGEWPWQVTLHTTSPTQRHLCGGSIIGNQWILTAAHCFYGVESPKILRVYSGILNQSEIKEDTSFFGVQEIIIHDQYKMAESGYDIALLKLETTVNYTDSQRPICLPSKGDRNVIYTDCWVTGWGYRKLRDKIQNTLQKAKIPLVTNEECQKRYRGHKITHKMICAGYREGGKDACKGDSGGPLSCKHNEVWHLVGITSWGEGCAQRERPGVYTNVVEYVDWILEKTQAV
Chain of human Factor XIa (P03951 whole entry partner, looked up): as the sequence (P03951 whole entry, looked up) above

The target in the assay is human Factor XIa (Homo sapiens (Human), UniProt P03951). The assay is described as follows: Factor XIa enzyme inhibition assay (chromogenic substrate S-2366). In kind it is biochemical. The settings on record: purified human Factor XIa, substrate S-2366, pH 7.4. The method, then:
The results of this assay are expressed as the inhibitory constant, Ki.
Values of Ki were determined by allowing the protease to react with the substrate in the presence of the inhibitor. Reactions were allowed to go for periods of 20-180 minutes (depending on the protease) and the velocities (rate of absorbance or fluorescence change versus time) were measured. The following relationships were used to calculate Ki values:
vs/vo=A+((B−A)/1+((IC50/(I)n))); and […]
In general, Ki refers to a measure of affinity in units of concentration, obtained from inhibition or displacement. Read a high Ki as a looser hold on the target. Compound `COCCNC(=O)c1cccc2c1CCN(C(=O)/C=C/c1cc(Cl)ccc1-n1cnnn1)C2C(=O)Nc1ccc(C(=O)O)cc1` (stereo not drawn) [Example 3, (E)-4-(2-(3-(5-Chloro-2-(1H-tetrazol-1-yl)phenyl)acryloyl)-5-(2-methoxyethylcarbamoyl)-1,2,3,4-tetrahydroisoquinoline-1-carboxamido)benzoic acid] showed an inhibition constant (Ki) of 21.3 nM.

As for `CS(=O)(=O)Nc1cccc2c1CCN(C(=O)/C=C/c1c(-n3cnnn3)ccc(Cl)c1F)C2C(=O)Nc1ccc(C(=O)O)cc1` (stereo not drawn) [Example 9, (E)-4-(2-(3-(3-chloro-2-fluoro-6-(1H-tetrazol-1-yl)phenyl)acryloyl)-5-(methylsulfonamido)-1,2,3,4-tetrahydroisoquinoline-1-carboxamido)benzoic acid], the Ki is < 5 nM.

The compound `CCOC(=O)CCCNC(=O)c1cccc2c1CCN(C(=O)/C=C/c1c(-n3cnnn3)ccc(Cl)c1F)C2C(=O)Nc1ccc(F)cc1` (stereo not drawn) [Example 14] displayed a Ki of 580 nM.

The compound `CCOC(=O)[C@H]1CCCN(C(=O)c2cccc3c2CCN(C(=O)/C=C/c2c(-n4cnnn4)ccc(Cl)c2F)C3C(=O)Nc2ccc(NC(=O)OC)cc2)C1` (stereo partly drawn) [Example 16] came in with an inhibition constant Ki of 332 nM.

Compound `CC(C)(C)OC(=O)c1ccc(NC(=O)C2c3cccc(C(=O)N4CCN(C(=O)OC(C)(C)C)CC4)c3CCN2C(=O)/C=C/c2c(-n3cnnn3)ccc(Cl)c2F)cc1` (stereo not drawn) [Example 24] displayed a Ki of 170 nM.

The compound `O=C(O)c1ccc(NC(=O)C2c3cccc(C(=O)N4CCNCC4)c3CCN2C(=O)/C=C/c2c(-n3cnnn3)ccc(Cl)c2F)cc1` (stereo not drawn) [Example 29] gave a Ki of 553 nM.

Turning to `O=C(O)c1ccc(NC(=O)C2c3cccc(C(=O)N4CCNCC4)c3CCN2C(=O)/C=C/c2c(-n3cnnn3)ccc(Cl)c2F)cc1` (stereo not drawn) [Example 30], the inhibition constant (Ki) is < 5 nM.

With `COc1ccc(-c2cccc3c2CCN(C(=O)/C=C/c2c(-n4cnnn4)ccc(Cl)c2F)C3C(=O)Nc2ccc(C(=O)O)cc2)c(Cl)c1` (stereo not drawn) [Example 47, (E)-4-(2-(3-(3-chloro-2-fluoro-6-(1H-tetrazol-1-yl)phenyl)acryloyl)-5-(2-chloro-4-methoxyphenyl)-1,2,3,4-tetrahydroisoquinoline-1-carboxamido)benzoic acid], the Ki is < 5 nM.

With `COC(=O)Nc1ccc(-c2cccc3c2CCN(C(=O)/C=C/c2c(-n4cnnn4)ccc(Cl)c2F)[C@H]3C(=O)Nc2ccc(F)cc2)cc1` [Example 50, (R,E)-Methyl 4-(2-(3-(3-chloro-2-fluoro-6-(1H-tetrazol-1-yl)phenyl)acryloyl)-1-(4-fluorophenylcarbamoyl)-1,2,3,4-tetrahydroisoquinolin-5-yl)phenylcarbamate], the affinity, expressed as Ki, was 3370 nM. That is a single-digit micromolar value.

Take `CNC(=O)c1ccc(-c2cccc3c2CCN(C(=O)/C=C/c2c(-n4cnnn4)ccc(Cl)c2F)C3C(=O)NCC(=O)OC)cc1` (stereo not drawn) [Example 61]: the inhibition constant Ki turned out to be 342 nM.

Compound `CC[C@H](C)NC(=O)C1c2cccc(-c3ccc(C(=O)NC)cc3)c2CCN1C(=O)/C=C/c1c(-n2cnnn2)ccc(Cl)c1F` (stereo partly drawn) [Example 65] displayed a Ki of 49.2 nM. This Ki lies about 7-fold lower than the previous one.

The compound `CNC(=O)c1ccc(-c2cccc3c2CCN(C(=O)/C=C/c2c(-n4cnnn4)ccc(Cl)c2F)C3C(=O)NCc2nccn2C)cc1` (stereo not drawn) [Example 66] showed an inhibition constant Ki of 534 nM.

`CNC(=O)c1ccc(-c2cccc3c2CCN(C(=O)/C=C/c2c(-n4cnnn4)ccc(Cl)c2F)C3C(=O)Nc2ccc(C(=O)O)cc2)cn1` (stereo not drawn) [Example 78]: the inhibition constant (Ki) was < 5 nM.

The compound `CNC(=O)c1ccc(-c2cccc3c2CCN(C(=O)/C=C/c2c(-n4cnnn4)ccc(Cl)c2F)C3C(=O)Nc2ccc3c(c2)CN=N3)cc1` (stereo not drawn) [Example 80] had a Ki of 20.1 nM.

For the compound `CN(C)CCNC(=O)c1ccc(-c2cccc3c2CCN(C(=O)/C=C/c2c(-n4cnnn4)ccc(Cl)c2F)C3C(=O)Nc2ccc(C(=O)OC(C)(C)C)cc2)cc1` (stereo not drawn) [Example 89], the inhibitory constant (Ki) was < 5 nM.

For `CN(C)CCNC(=O)c1ccc(-c2cccc3c2CCN(C(=O)/C=C/c2c(-n4cnnn4)ccc(Cl)c2F)[C@H]3C(=O)Nc2ccc(C(=O)OCCN(C)C)cc2)cc1` [Example 93, (R,E)-2-(dimethylamino)ethyl 4-(2-(3-(3-chloro-2-fluoro-6-(1H-tetrazol-1-yl)phenyl)acryloyl)-5-(4-((2-(dimethylamino)ethyl)carbamoyl)phenyl)-1,2,3,4-tetrahydroisoquinoline-1-carboxamido)benzoate; bis-TFA salt], the affinity, expressed as Ki, was 951 nM.

The compound `CN(C)CCNC(=O)c1ccc(-c2cccc3c2CCN(C(=O)/C=C/c2c(-n4cnnn4)ccc(Cl)c2F)[C@H]3C(=O)Nc2ccc(C(=O)OCc3ccccn3)cc2)cc1` [Example 98] yielded a Ki of 132 nM.

In the case of `O=C(O)c1ccc(NC(=O)C2c3cccc(OC4CCNCC4)c3CCN2C(=O)/C=C/c2c(-n3cnnn3)ccc(Cl)c2F)cc1` (stereo not drawn) [Example 108, (E)-4-(2-(3-(3-Chloro-2-fluoro-6-(1H-tetrazol-1-yl)phenyl)acryloyl)-5-(piperidin-4-yloxy)-1,2,3,4-tetrahydroisoquinoline-1-carboxamido)benzoic acid, TFA salt], the Ki is < 5 nM.

Compound `CC(=O)c1ccc(Cl)c(F)c1/C=C/C(=O)N1CCc2c(-c3ccc(C(N)=O)cc3)cccc2[C@@H]1C(=O)Nc1ccc(C(=O)O)cc1` [Example 120] registered a Ki of 291 nM. This counts as sub-micromolar.

For the compound `CN(C)CCOc1cccc2c1CCN(C(=O)/C=C/c1c(-n3cnnn3)ccc(Cl)c1F)C2C(=O)Nc1ccc(C(=O)O)cc1` (stereo not drawn) [Example 132, (E)-4-(2-(3-(3-chloro-2-fluoro-6-(1H-tetrazol-1-yl)phenyl)acryloyl)-5-(2-(dimethylamino)ethoxy)-1,2,3,4-tetrahydroisoquinoline-1-carboxamido)benzoic acid, TFA salt], the Ki was < 5 nM.

Take `CC(=O)c1ccc(Cl)c(F)c1/C=C/C(=O)N1CCc2c(O)cccc2C1C(=O)Nc1ccc(C(=O)O)cc1` (stereo not drawn) [Example 146, (E)-4-(2-(3-(6-acetyl-3-chloro-2-fluorophenyl)acryloyl)-5-hydroxy-1,2,3,4-tetrahydroisoquinoline-1-carboxamido)benzoic acid]: the affinity, expressed as Ki, was 24.8 nM. In other words, the double-digit nanomolar range.

Consider `CC(=O)c1ccc(Cl)c(F)c1/C=C/C(=O)N1CCc2c(-c3ccc(C(=O)NCCN(C)C)cc3)cccc2[C@@H]1C(=O)Nc1ccc(C(=O)O)cc1` [Example 150, (R,E)-4-(2-(3-(6-Acetyl-3-chloro-2-fluorophenyl)acryloyl)-5-(4-(2-(dimethylamino)ethylcarbamoyl)phenyl)-1,2,3,4-tetrahydroisoquinoline-1-carboxamido)benzoic acid, TFA salt], for which the Ki was found to be 37 nM.

In turn, `CCOC(=O)c1ccc(NC(=O)C2c3cccc(OCCC4CCN(C)CC4)c3CC(C)(C)N2C(=O)/C=C/c2c(-n3cnnn3)ccc(Cl)c2F)cc1` (stereo not drawn) [Example 152, (E)-ethyl 4-(2-(3-(3-chloro-2-fluoro-6-(1H-tetrazol-1-yl)phenyl)acryloyl)-3,3-dimethyl-5-(2-(1-methylpiperidin-4-yl)ethoxy)-1,2,3,4-tetrahydroisoquinoline-1-carboxamido)benzoate, TFA salt] displayed a Ki of 100 nM.

Compound `CCOC(=O)c1ccc(NC(=O)[C@H]2c3cccc(OCCC4CCNCC4)c3CCN2C(=O)/C=C/c2c(-n3cnnn3)ccc(Cl)c2F)cc1` [Example 160, (R,E)-ethyl 4-(2-(3-(3-chloro-2-fluoro-6-(1H-tetrazol-1-yl)phenyl)-acryloyl)-5-(2-(piperidin-4-yl)ethoxy)-1,2,3,4-tetrahydroisoquinoline-1-carboxamido)benzoate, TFA salt] came in with a Ki of 3530 nM. This Ki lies about 35-fold higher than the previous one.

Take `Cn1nccc1-c1cccc2c1CCN(C(=O)/C=C/c1c(-n3cnnn3)ccc(Cl)c1F)C2C(=O)Nc1ccc(C(=O)O)cc1` (stereo not drawn) [Example 173, (E)-4-(2-(3-(3-Chloro-2-fluoro-6-(1H-tetrazol-1-yl)phenyl)acryloyl)-5-(1-methyl-1H-pyrazol-5-yl)-1,2,3,4-tetrahydroisoquinoline-1-carboxamido)benzoic acid]: the Ki is < 5 nM.

`CCOC(=O)c1ccc(NC(=O)C2c3cccc(-c4ccc(C(=O)NC)nc4)c3CCN2C(=O)/C=C/c2c(-n3cnnn3)ccc(Cl)c2F)cc1` (stereo not drawn) [Example 188] gave an inhibitory constant (Ki) of 3860 nM.

For the compound `CN(C)c1ccc(-c2cccc3c2CCN(C(=O)/C=C/c2c(-n4cnnn4)ccc(Cl)c2F)C3C(=O)Nc2ccc(C(=O)O)cc2)cn1` (stereo not drawn) [Example 191], the inhibition constant (Ki) is < 5 nM.

These data come from patent US9079929B2, “Substituted tetrahydroisoquinoline compounds as factor XIa inhibitors” (priority 2011, dated 2015).
